Assay results from patent US12454559B2, “Activating mitotic checkpoint control mechanisms” (The Regents of the University of Michigan, priority 2015, dated 2025).

Columns and labels:
HeLa cells = experiment: Duration of mitosis / mitotic arrest by time-lapse imaging of HeLa cells expressing rapamycin-dimerizable Mps1 and KNL1 phosphodomain (eSAC); assay type: cell-based, human
Excerpt: As described elsewhere herein, a kinetochore-independent SAC activator was engineered which comprises a region of KNL1 that contains a series of Mps1 phosphorylation sites, known as “MELT repeats”, which are necessary for SAC activation, but lacks the kinetochore-localization domain at the C-terminus or the newly identified transient localization domain at its N-terminus (FIG. 21). FKBP12 was fused to this minimal KNL1 phosphodomain and FRB to Mps1, and rapamycin was used to induce dimerization of the fusion proteins in HeLa cells (FIGS. 17B, 22). […] These cells maintained an aligned metaphase plate indicating an inability to initiate anaphase and that the observed mitotic arrest was not due to the disruption of kinetochore-microtubule interactions. […] To further ensure kinetochore-independent operation of the dimerized proteins, the kinetochore-localization domain of Mps1 was removed (FIG. 17E). […] Furthermore, individually inhibiting the kinase activity of exogenous Mps1 using an analog-sensitive version of the kinase domain or preventing the phosphorylation of the minimal KNL1 phosphodomain by using a non-phosphorylatable version of the phosphodomain each prevented the rapamycin-induced mitotic arrest (FIG. 23). Thus, the catalytic activity of the Mps1 kinase domain and the Mps1 phosphorylation sites within the minimal phosphodomain are both essential for the rapamycin-induced metaphase arrest. […] The above described system of FKBP12/FRB-dimerizable Mps1 kinase domain and KNL1 phosophodomains is referred to in this example as an ectopic SAC activation system (eSAC).
MELT repeats in the eSAC phosphodomain were phosphorylated only in the presence of rapamycin, and were not phosphorylated if the SAC was activated by creating unattached kinetochores by treatment with the microtubule depolymerizing drug nocodazole (FIG. 18A). Reciprocally, the MELT repeats in endogenous KNL1 were not appreciably phosphorylated in rapamycin-treated cells, but were strongly phosphorylated in nocodazole-treated cells. […]

ipl1-as6 = experiment: Spindle localization of Sli15-GFP in pre-anaphase cells expressing ipl1-as6; assay type: cell-based, budding yeast; settings: 50 μM
Description: (§1) The ATP analogues 1-NMPP1 and 1-NAPP1 (final concentration 50 μM) were used to block the activity of mps1-as1 and ipl1-as6, respectively. Cells were first synchronized in S-phase using 100 mM hydroxyl urea (HU) for 2.5 h, washed with YPD, and then released into media containing the appropriate inhibitor for 15 min. This was followed by the addition of rapamycin to the media to anchor Mps1-Frb at Mtw1-C. The bud size was used to monitor cell-cycle progress.
To study the effect of 1-NAPP1 on ipl1-as6 activity, the spindle localization of Sli15-GFP was measured in pre-anaphase cells67. The bud size was used to find pre-anaphase cells. If the bud was smaller than 50% in size as compared with the mother cell, and contained a short bar of Sli15-GFP located within the mother cell and at the bud neck, then the cell was deemed to be in pre-anaphase.

yeast cells = experiment: Yeast cell-cycle progression (large-budded / metaphase-arrested cells) after rapamycin-induced anchoring; assay type: cell-based, budding yeast
Description: Stock solution (1 mg ml^−1) of rapamycin in DMSO was diluted ×1,000 to achieve 1 μg ml^−1 final concentration in all experiments involving rapamycin-induced dimerization.
as §1
Anaphase cells in cycling cultures will also be scored as large-budded cells by this criterion. In strains carrying fluorescent markers, the separation of the kinetochore clusters or spindle pole bodies was used to determine whether or not the cells arrested in mitosis. Large-budded cells with kinetochore-cluster separation smaller than 1 μm or spindle length smaller than 2 μm were scored as metaphase-arrested cells (ref. 68; herein incorporated by reference in its entirety).

Molecule: c1nc2nc(Nc3ccc(N4CCOCC4)cc3)nc(NC3CCCCC3)c2[nH]1 [Reversine]
- Effect on rapamycin-induced mitotic arrest (time until anaphase entry) (HeLa cells; HeLa cells in rapamycin-induced arrest, KNL1 phosphodomain-Mps1 dimerization): reversed rapidly
- Effect on SAC and cell division (duration of mitosis) (HeLa cells; HeLa cells, Reversine-treated vs untreated, no rapamycin): inactivates the SAC and significantly accelerates cell division

Molecule: CC(C)(C)n1nc(-c2cccc3ccccc23)c2c(N)ncnc21 [1-NAPP1]
- Inhibition of ipl1-as6 (Sli15-GFP spindle localization) (ipl1-as6): inhibits ipl1-as6
- Effect on SAC activation induced by Mps1 anchored at Mtw1-C (yeast cells; S-phase synchronized ipl1-as6 cells released into 1-NAPP1 and rapamycin): did not have any effect on SAC activation

Molecule: CC(C)(C)n1nc(Cc2cccc3ccccc23)c2c(N)ncnc21 [1NM-PP1]
- Effect on SAC activation by Mps1-Frb anchored at the kinetochore (yeast cells; heterozygous diploids expressing mps1-as1 and Mps1-Frb, 1-NMPP1 15 min, then rapamycin): does not affect SAC activation
- Effect on eSAC-induced arrest (HeLa cells; 10 μM with Rapamycin, analog-sensitive Mps1S602A kinase domain with minimal phosphodomain): abrogated the eSAC-induced arrest

B1: Spc105120: 329: minimal, anchorable phosphodomain comprising residues 120-329 of Spc105, contains all 6 MELT motifs (protein)
chain: LVTSTQIDDARTEEKTAAEEDPDTSGMELTEPIVATSDSNKASQHDPTSMEMTEVFPRSIRQKNPDVEGESIESSQQIDDVEAVREETMELTAIHNVHDYDSISEDTVEGEPIDLTEYESKPYVPNSVSRSTGKSSDYSVERSNDKSDLSKSENKTNSSQPMEITDIFHADPQNPMGLHSDNNINDDGNEMELTQIQTNFDRDNHHIDES
modifications: left off: small tags and cut ends
notes: minimal, anchorable phosphodomain comprising residues 120-329 of Spc105, contains all 6 MELT motifs
- Cell-cycle arrest / SAC activation when anchored to Mps1 (yeast cells; anchored to Mps1-Fkbp12 with rapamycin, asynchronously dividing cells): arrested in metaphase
